How the values were obtained:
Test in all cases: Kinase panel enzymatic inhibition assay (Nanosyn)
Type in all cases: biochemical
[1] = molecular target: T1, Abl1 (Homo sapiens, UniProt P00519); conditions: compound 5 μM; ATP at Km; 30-minute pre-incubation
T1 construct: purchased Nanosyn (contract screening)
How it was run: (§1)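 Inhibition is expressed as percent at 5 μM or as IC50, with ATP set at the Km of each kinase and a 30-minute compound pre-incubation. Detection used an accepted enzymatic format such as Caliper mobility shift.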

[2] = molecular target: T2, BRAF (Homo sapiens, UniProt P15056); conditions: compound 5 μM; ATP at Km; 30-minute pre-incubation
T2 construct: purchased Nanosyn (contract screening)
How it was run: as §1

[3] = molecular target: T3, CSF1R (Homo sapiens, UniProt P07333); conditions: compound 5 μM; ATP at Km; 30-minute pre-incubation
T3 construct: purchased Nanosyn (contract screening)
T3 sequence (P07333 20-972): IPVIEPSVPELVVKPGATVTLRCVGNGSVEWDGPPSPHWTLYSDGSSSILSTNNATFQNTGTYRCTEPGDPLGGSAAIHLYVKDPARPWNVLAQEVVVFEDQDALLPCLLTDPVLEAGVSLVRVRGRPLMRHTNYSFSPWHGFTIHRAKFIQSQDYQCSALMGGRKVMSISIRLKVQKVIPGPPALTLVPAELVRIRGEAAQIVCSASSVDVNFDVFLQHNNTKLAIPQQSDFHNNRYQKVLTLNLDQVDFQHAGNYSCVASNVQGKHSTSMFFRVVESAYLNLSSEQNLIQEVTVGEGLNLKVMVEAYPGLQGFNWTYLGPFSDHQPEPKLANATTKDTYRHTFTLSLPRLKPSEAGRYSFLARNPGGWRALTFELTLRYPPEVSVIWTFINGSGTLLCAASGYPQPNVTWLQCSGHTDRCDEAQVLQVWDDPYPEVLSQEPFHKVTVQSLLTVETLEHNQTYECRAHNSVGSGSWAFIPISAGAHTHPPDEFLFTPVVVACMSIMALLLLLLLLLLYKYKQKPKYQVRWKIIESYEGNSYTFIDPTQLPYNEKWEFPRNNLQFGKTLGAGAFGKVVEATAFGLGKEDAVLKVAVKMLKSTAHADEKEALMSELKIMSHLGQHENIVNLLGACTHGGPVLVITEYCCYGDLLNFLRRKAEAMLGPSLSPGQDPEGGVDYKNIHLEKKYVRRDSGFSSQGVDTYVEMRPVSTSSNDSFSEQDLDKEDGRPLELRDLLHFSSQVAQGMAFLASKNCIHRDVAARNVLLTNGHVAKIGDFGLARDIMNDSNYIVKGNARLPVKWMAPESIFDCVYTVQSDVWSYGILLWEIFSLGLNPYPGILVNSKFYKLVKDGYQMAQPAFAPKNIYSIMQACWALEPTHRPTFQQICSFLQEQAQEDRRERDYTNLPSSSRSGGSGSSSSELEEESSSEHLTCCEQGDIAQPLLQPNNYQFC
How it was run: as §1

[4] = molecular target: T4, DDR1 (Homo sapiens, UniProt Q08345); conditions: ATP at Km, 30-minute pre-incubation; for inhibition at 5 µM: compound 5 μM; for IC50: read-out: kinase inhibition in terms of IC50, DDR1
T4 construct: purchased Nanosyn (contract screening)
T4 sequence (Q08345 19-913): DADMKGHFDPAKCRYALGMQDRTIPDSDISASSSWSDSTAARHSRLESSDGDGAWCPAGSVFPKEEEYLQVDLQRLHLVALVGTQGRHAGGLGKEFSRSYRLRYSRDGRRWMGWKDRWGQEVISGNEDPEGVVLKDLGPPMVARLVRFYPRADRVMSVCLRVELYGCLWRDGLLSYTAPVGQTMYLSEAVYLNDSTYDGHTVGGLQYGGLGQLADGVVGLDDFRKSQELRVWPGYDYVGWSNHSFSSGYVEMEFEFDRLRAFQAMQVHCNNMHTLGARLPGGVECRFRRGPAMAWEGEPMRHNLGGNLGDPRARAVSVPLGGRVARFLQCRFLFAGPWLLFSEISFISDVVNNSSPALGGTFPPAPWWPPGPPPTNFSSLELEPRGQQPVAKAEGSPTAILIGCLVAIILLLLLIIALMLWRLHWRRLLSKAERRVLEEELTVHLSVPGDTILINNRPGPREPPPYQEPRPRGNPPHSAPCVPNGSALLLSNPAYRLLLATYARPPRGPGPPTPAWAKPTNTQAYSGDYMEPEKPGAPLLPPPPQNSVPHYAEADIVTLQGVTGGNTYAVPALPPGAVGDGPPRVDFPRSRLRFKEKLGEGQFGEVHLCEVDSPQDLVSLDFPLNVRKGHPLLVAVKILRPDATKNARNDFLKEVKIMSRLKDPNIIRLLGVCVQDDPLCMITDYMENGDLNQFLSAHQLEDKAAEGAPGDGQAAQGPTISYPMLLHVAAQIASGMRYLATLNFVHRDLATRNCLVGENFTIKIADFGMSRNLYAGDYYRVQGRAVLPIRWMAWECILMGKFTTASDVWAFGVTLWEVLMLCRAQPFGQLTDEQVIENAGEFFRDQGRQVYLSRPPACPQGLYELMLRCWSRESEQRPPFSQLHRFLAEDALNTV
How it was run: as §1

[5] = molecular target: T5, FGR (Homo sapiens, UniProt P09769); conditions: compound 5 μM; ATP at Km; 30-minute pre-incubation
T5 construct: purchased Nanosyn (contract screening)
T5 sequence (P09769 whole entry): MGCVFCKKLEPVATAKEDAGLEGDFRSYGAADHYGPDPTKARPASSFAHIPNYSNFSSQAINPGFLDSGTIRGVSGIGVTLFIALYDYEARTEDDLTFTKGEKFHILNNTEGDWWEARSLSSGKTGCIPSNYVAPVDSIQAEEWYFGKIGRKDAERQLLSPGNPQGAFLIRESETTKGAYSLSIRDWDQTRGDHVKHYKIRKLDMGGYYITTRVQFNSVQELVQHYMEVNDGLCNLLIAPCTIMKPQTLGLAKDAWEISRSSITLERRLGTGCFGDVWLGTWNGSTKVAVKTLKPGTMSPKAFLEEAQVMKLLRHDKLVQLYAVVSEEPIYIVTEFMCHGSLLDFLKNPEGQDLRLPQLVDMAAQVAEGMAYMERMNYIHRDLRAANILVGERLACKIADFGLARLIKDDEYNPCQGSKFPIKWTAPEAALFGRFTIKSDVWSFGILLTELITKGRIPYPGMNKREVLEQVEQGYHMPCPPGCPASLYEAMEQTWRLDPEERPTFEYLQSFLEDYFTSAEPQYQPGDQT
How it was run: as §1

[6] = molecular target: T6, KIT (Homo sapiens, UniProt P10721); conditions: compound 5 μM; ATP at Km; 30-minute pre-incubation
T6 construct: purchased Nanosyn (contract screening)
How it was run: as §1

[7] = molecular target: T7, LYNa (Homo sapiens, UniProt P07948); conditions: compound 5 μM; ATP at Km; 30-minute pre-incubation
T7 construct: purchased Nanosyn (contract screening)
How it was run: as §1

[8] = molecular target: T8, MNK2 (Homo sapiens, UniProt Q9HBH9); conditions: compound 5 μM; ATP at Km; 30-minute pre-incubation
T8 construct: Nanosyn (contract laboratory that ran the panel)
T8 sequence (Q9HBH9 whole entry): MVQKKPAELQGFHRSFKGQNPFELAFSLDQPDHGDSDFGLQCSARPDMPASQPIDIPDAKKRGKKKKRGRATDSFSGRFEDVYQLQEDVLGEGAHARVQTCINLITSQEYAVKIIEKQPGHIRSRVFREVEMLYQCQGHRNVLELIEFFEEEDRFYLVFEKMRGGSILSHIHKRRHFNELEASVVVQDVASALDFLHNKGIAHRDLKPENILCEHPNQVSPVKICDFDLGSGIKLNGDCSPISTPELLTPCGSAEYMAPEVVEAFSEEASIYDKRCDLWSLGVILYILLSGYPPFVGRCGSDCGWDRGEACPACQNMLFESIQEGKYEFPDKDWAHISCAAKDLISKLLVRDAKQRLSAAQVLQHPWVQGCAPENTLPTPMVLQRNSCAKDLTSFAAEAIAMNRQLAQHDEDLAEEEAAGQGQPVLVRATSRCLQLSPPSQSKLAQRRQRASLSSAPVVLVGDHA
How it was run: as §1

[9] = molecular target: T9, SGK3 (Homo sapiens, UniProt Q96BR1); conditions: compound 5 μM; ATP at Km; 30-minute pre-incubation
T9 construct: Nanosyn (contract laboratory that ran the panel)
T9 sequence (Q96BR1 1-496): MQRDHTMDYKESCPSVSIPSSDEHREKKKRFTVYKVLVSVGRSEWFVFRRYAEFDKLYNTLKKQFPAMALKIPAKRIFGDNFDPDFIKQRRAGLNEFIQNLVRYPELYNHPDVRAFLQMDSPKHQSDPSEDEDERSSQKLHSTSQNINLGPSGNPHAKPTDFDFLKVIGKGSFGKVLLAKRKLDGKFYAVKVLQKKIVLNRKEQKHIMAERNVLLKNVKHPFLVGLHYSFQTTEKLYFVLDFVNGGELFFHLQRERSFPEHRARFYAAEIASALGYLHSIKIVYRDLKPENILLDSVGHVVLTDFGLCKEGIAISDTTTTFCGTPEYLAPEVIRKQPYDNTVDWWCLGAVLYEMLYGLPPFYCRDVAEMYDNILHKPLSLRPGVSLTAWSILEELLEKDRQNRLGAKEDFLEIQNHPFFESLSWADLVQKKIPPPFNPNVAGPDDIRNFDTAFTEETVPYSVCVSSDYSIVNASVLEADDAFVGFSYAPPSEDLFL
How it was run: as §1

[10] = molecular target: T10, SPHK2 (Homo sapiens, UniProt Q9NRA0); conditions: compound 5 μM; ATP at Km; 30-minute pre-incubation
T10 construct: Nanosyn (contract laboratory that ran the panel)
T10 sequence (Q9NRA0 1-654): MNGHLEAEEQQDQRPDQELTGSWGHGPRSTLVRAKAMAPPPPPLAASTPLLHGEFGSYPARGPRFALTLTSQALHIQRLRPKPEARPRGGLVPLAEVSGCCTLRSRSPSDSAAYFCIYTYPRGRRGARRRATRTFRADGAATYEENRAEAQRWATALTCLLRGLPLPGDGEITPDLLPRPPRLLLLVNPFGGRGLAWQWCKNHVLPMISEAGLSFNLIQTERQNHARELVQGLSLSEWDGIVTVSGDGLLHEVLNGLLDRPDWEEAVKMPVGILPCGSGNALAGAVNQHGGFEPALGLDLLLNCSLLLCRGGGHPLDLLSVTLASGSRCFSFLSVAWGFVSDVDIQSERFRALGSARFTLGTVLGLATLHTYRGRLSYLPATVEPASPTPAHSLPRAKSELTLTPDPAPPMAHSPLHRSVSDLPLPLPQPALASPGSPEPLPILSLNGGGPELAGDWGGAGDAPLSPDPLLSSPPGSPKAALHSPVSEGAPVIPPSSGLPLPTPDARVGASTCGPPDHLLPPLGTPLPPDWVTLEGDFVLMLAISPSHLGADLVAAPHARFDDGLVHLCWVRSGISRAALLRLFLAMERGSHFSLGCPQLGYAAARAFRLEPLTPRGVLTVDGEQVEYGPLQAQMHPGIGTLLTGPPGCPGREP
How it was run: as §1

[11] = molecular target: T11, YES (Homo sapiens, UniProt P07947); conditions: compound 5 μM; ATP at Km; 30-minute pre-incubation
T11 construct: Nanosyn (contract laboratory that ran the panel)
T11 sequence (P07947 whole entry): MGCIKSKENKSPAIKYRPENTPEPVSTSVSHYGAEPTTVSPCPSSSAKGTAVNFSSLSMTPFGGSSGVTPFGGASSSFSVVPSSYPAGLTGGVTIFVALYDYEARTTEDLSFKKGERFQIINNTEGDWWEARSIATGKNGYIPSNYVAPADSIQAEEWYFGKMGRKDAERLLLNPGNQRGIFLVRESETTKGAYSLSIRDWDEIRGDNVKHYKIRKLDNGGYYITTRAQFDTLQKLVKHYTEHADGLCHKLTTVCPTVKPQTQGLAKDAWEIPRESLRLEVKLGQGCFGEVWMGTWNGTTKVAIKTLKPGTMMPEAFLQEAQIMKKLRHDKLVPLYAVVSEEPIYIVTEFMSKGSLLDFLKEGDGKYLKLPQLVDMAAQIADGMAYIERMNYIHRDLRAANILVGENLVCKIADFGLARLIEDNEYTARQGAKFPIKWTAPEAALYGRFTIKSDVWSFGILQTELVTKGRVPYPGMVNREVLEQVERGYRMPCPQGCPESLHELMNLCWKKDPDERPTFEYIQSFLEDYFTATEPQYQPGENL
How it was run: as §1

[12] = molecular target: T12, p38b (Homo sapiens, UniProt Q15759); conditions: compound 5 μM; ATP at Km; 30-minute pre-incubation
T12 construct: Nanosyn (contract laboratory that ran the panel)
T12 sequence (Q15759 whole entry): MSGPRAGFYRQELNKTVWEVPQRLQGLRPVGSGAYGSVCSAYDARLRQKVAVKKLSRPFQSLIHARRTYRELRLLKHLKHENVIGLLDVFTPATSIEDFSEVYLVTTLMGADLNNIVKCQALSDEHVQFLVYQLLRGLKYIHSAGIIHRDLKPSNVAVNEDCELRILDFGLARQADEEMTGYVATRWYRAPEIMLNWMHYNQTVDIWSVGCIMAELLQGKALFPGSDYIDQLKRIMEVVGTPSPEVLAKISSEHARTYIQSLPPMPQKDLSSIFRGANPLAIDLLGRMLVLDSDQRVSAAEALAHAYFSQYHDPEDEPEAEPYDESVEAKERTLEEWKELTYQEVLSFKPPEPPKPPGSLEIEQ
How it was run: as §1

T1 sequence (P00519 whole entry): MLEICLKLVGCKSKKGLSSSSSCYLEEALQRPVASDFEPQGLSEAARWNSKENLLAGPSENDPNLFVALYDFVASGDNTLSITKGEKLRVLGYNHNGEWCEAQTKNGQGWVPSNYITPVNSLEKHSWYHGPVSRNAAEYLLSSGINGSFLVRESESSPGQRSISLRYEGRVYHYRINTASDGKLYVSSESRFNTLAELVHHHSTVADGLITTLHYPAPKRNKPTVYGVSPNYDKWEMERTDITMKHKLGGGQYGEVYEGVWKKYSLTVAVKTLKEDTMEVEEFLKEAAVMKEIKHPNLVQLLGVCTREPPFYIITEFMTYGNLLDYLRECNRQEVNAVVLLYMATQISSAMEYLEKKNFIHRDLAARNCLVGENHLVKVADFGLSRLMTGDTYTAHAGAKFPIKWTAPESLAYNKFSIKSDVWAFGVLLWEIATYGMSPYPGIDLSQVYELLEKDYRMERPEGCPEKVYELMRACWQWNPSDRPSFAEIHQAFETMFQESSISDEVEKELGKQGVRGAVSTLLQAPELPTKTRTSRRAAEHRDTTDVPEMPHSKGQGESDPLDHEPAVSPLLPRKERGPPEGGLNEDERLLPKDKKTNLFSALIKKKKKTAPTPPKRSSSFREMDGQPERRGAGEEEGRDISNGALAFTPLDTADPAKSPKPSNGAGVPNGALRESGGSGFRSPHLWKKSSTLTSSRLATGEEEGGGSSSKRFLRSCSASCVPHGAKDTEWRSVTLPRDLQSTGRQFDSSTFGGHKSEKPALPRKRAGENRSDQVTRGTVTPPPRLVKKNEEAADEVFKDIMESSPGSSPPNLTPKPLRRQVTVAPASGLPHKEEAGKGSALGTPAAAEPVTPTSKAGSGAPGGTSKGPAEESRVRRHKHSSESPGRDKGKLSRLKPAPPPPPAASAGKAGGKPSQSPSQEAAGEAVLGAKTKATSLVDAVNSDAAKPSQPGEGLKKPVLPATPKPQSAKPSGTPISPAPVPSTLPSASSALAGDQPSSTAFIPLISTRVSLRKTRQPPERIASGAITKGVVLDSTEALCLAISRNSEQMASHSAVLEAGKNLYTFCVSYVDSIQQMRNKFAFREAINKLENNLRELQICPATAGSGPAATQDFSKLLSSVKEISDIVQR

| Compound | inhibition at 5 µM [1] [%] | inhibition at 5 µM [2] [%] | inhibition at 5 µM [3] [%] | inhibition at 5 µM [4] [%] | inhibition at 5 µM [5] [%] | inhibition at 5 µM [6] [%] | inhibition at 5 µM [7] [%] | inhibition at 5 µM [8] [%] | inhibition at 5 µM [9] [%] | inhibition at 5 µM [10] [%] | inhibition at 5 µM [11] [%] | inhibition at 5 µM [12] [%] | IC50 [4] [nM] |
| --- | --- | --- | --- | --- | --- | --- | --- | --- | --- | --- | --- | --- | --- |
| Cc1ccc(NC(=O)c2cc(S(C)(=O)=O)n(-c3ccc(F)cc3)n2)cc1Nc1ccc2ncn(C)c(=O)c2c1 [Ex4, 1-(4-fluorophenyl)-N-(4-methyl-3-((3-methyl-4-oxo-3,4-dihydroquinazolin-6-yl)amino)phenyl)-5-(methylsulfonyl)-1H-pyrazole-3-carboxamide] | < 79 | ≥ 95 | < 79 | < 79 | < 79 | 90 to 94 | < 79 | < 79 | < 79 | < 79 | < 79 | < 79 | – |
| Cc1ccc(NC(=O)c2cc([S+](C)[O-])n(-c3ccc(F)cc3)n2)cc1Nc1ccc2ncn(C)c(=O)c2c1 (centres unmarked) [Ex5, 1-(4-fluorophenyl)-N-(4-methyl-3-((3-methyl-4-oxo-3,4-dihydroquinazolin-6-yl)amino)phenyl)-5-(methylsulfinyl)-1H-pyrazole-3-carboxamide] | < 79 | ≥ 95 | < 79 | 90 to 94 | < 79 | 80 to 89 | ≥ 95 | < 79 | < 79 | < 79 | < 79 | 80 to 89 | – |
| Cc1ccc(NC(=O)c2cc([S+](C)[O-])n(-c3ccc(F)cc3)n2)cc1C#Cc1cnc2cccnn12 (centres unmarked) [Ex6, 1-(4-fluorophenyl)-N-(3-(imidazo[1,2-b]pyridazin-3-ylethynyl)-4-methylphenyl)-5-(methylsulfinyl)-1H-pyrazole-3-carboxamide] | < 79 | ≥ 95 | 90 to 94 | ≥ 95 | 80 to 89 | 90 to 94 | 90 to 94 | < 79 | < 79 | < 79 | 80 to 89 | 80 to 89 | – |
| CNC(=O)c1cc(Oc2ccc(F)c(NC(=O)c3cc([S+](C)[O-])n(-c4ccc(F)cc4)n3)c2)ccn1 (centres unmarked) [Ex7, 4-(4-fluoro-3-(1-(4-fluorophenyl)-5-(methylsulfinyl)-1H-pyrazole-3-carboxamido)phenoxy)-N-methylpicolinamide] | < 79 | 90 to 94 | < 79 | < 79 | < 79 | < 79 | < 79 | < 79 | < 79 | < 79 | < 79 | < 79 | – |
| CSc1cc(C(=O)Nc2cc(Oc3ccnc(C(=O)NC4CNC4)c3)ccc2F)nn1-c1ccc(F)cc1 [Ex8, N-(azetidin-3-yl)-4-(4-fluoro-3-(1-(4-fluorophenyl)-5-(methylthio)-1H-pyrazole-3-carboxamido)phenoxy)picolinamide] | < 79 | 90 to 94 | < 79 | < 79 | < 79 | < 79 | < 79 | 80 to 89 | 80 to 89 | < 79 | < 79 | < 79 | – |
| Cc1ccc(NC(=O)c2cc(S(C)(=O)=O)n(-c3ccc(F)cc3)n2)cc1-c1cc(OCCO)nc(N2CCOCC2)c1 [Ex9, 1-(4-fluorophenyl)-N-(3-(2-(2-hydroxyethoxy)-6-morpholinopyridin-4-yl)-4-methylphenyl)-5-(methylsulfonyl)-1H-pyrazole-3-carboxamide] | < 79 | ≥ 95 | < 79 | ≥ 95 | < 79 | < 79 | < 79 | < 79 | < 79 | < 79 | < 79 | 80 to 89 | – |
| Cc1ccc(NC(=O)c2cc([S+](C)[O-])n(-c3ccc(F)cc3)n2)cc1-c1cc(OCCO)nc(N2CCOCC2)c1 (centres unmarked) [Ex10, 1-(4-fluorophenyl)-N-(3-(2-(2-hydroxyethoxy)-6-morpholinopyridin-4-yl)-4-methylphenyl)-5-(methylsulfinyl)-1H-pyrazole-3-carboxamide] | < 79 | ≥ 95 | < 79 | ≥ 95 | < 79 | < 79 | < 79 | < 79 | < 79 | < 79 | < 79 | < 79 | – |
| Cc1ccc(NC(=O)c2cc([S+](C)[O-])n(-c3ccc(F)cc3)n2)cc1-c1cc(N2CCOCC2)c(=O)n(C)c1 (centres unmarked) [Ex11, 1-(4-fluorophenyl)-N-(4-methyl-3-(1-methyl-5-morpholino-6-oxo-1,6-dihydropyridin-3-yl)phenyl)-5-(methylsulfinyl)-1H-pyrazole-3-carboxamide] | < 79 | ≥ 95 | < 79 | < 79 | < 79 | < 79 | < 79 | < 79 | < 79 | < 79 | < 79 | < 79 | – |
| Cc1ccc(NC(=O)c2cc(S(C)(=O)=O)n(-c3ccc(F)cc3)n2)cc1-c1cc(N2CCOCC2)c(=O)n(C)c1 [Ex12, 1-(4-fluorophenyl)-N-(4-methyl-3-(1-methyl-5-morpholino-6-oxo-1,6-dihydropyridin-3-yl)phenyl)-5-(methylsulfonyl)-1H-pyrazole-3-carboxamide] | < 79 | ≥ 95 | < 79 | 80 to 89 | < 79 | < 79 | < 79 | < 79 | < 79 | < 79 | < 79 | < 79 | – |
| COc1cc2nccc(Oc3ccc(NC(=O)c4cc(S(C)(=O)=O)n(-c5ccc(F)cc5)n4)c(F)c3)c2cc1OC [Ex71, N-(4-((6,7-dimethoxyquinolin-4-yl)oxy)-2-fluorophenyl)-1-(4-fluorophenyl)-5-(methylsulfonyl)-1H-pyrazole-3-carboxamide] | – | – | – | – | – | – | – | – | – | – | – | – | < 500 |
| COc1cc2nccc(Oc3ccc(NC(=O)c4cc(S(C)(=O)=O)n(-c5ccc(F)cc5)n4)cc3F)c2cc1OC [Ex73, N-(4-((6,7-dimethoxyquinolin-4-yl)oxy)-3-fluorophenyl)-1-(4-fluorophenyl)-5-(methylsulfonyl)-1H-pyrazole-3-carboxamide] | – | – | – | – | – | – | – | – | – | – | – | – | < 500 |

From US20240400577A1, “MODULATORS OF PROTEIN KINASES” (VIBLIOME THERAPEUTICS, LLC, priority 2021, published 2024)
